Test results from US10745365B2, “Luminogenic and fluorogenic compounds and methods to detect molecules or conditions” (Promega Corporation, priority 2005, dated 2020).
Read-outs that look alike come from different tables or passages of the source.

How the values were obtained:
porcine esterase = assay: Two-step luminescent carboxylesterase assay with D-luciferin esters; format: biochemical; conditions: two step luminescent assay format
CYP2D6 = target: T1, CYP2D6 (Homo sapiens, UniProt P10635); assay: CYP2D6 inhibition assay with luciferin-6-methylether ethylene glycol ester; format: biochemical; conditions: substrate luciferin-6-methylether ethylene glycol ester
T1 construct: purchased Discovery Labware (BD/Gentest); host or cells: insect cell expression system (membrane fractions)

[1] = target: T2, QuantiLum Luciferase (firefly luciferase) (Photinus pyralis, UniProt P08659); assay: ATP titration of luciferase reactions with luciferin and fluoroluciferins; format: biochemical
T2 construct: purchased Promega Corporation El 70
Protocol: AU compounds except 5’-fluoroluciferin and DTT were purchased from Sigma Chemical. To some of this reagent 5 mM ATP (Amersham/Invitrogen) was added, then serially diluted by half-logs to 0.05 mM. Reactions were initiated by adding equal volumes (0.1 ml) of reagent and DMEM medium (Gibco/Invitrogen) containing 0.1% Prionex® (Pentapharm) and 1.4×10-5 mg/ml QuantiLum™ Luciferase (Promega Corporation).
For ATP titrations for 7′-fluoroluciferin, reagent was created containing 200 mM HEPES, 200 mM PIPES, 1 mM CDTA, 0.5% Tergitol NP-9, 0.03% Benzyl dodecyldimethyl ammonium bromide, 30 mM thiourea, 10 mM magnesium sulfate, and 0.15 mM 7′-fluoroluciferin. This solution was separated into 3 parts and pH of the reagents were 7.4, 7.2 and 6.7. To some of this reagent, 10 mM ATP (Amersham/Invitrogen) was added. The ATP was serially diluted by quarter-logs from 10 mM to 0.32 mM.
Reactions were initiated by adding equal volumes (0.03 ml) of reagent and DMEM medium (Gibco/Invitrogen) containing 0.1% Prionex® (Pentapharm) and 1.4×10-5 mg/ml QuantiLum™ Luciferase (Promega Corporation).
Luminescence was measured for 0.5 seconds per well using Berthold Orion luminometer.

[2] = target: T2, QuantiLum Luciferase (firefly luciferase); assay: Luminescence spectra of fluoroluciferins; format: biochemical; conditions: pH 7.4
Protocol: All compounds except fluoroluciferin and ATP were purchased from Sigma Chemical. ATP was purchased from Amersham/Invitrogen.
Spectra were measured using 0.5s integration with 1 nm increments on a Spex Fluorolog.

[3] = target: T2, QuantiLum Luciferase (firefly luciferase); assay: pH dependence of firefly luciferase signal with luciferin or 5′-fluoroluciferin; format: biochemical
Protocol: Aliquots of these solutions were then placed into tubes and buffers were added to 80 mM.
Luminescent reactions were initiated by combining 100 μl of the luciferase-containing solution and 100 μl of the luciferase detection reagents. Luminescence was integrated over 1 second per sample using the Veritas plate luminometer (Turner Bio Systems). N=3 for each result.

GST M1-1 = target: T3, GST M1-1 (Homo sapiens, UniProt P09488, K173N); assay: Luminescent GST assay with GST M1-1; format: biochemical; conditions: for Raw Data light reading: GST M1-1, 2 mM glutathione
T3 construct: purchased Sigma
T3 sequence (P09488 1-218 K173N): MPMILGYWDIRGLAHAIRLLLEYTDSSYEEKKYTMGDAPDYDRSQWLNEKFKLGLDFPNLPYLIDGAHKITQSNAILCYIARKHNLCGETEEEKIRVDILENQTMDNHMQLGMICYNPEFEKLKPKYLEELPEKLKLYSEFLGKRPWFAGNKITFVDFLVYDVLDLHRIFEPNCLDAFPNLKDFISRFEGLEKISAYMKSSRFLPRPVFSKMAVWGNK

S. japonica GST = target: T4, S. japonica GST (Schistosoma japonicum, UniProt P08515); format: biochemical; conditions: for Raw Data light reading: S. japonica GST, 2 mM glutathione; for Light Reading: 45 min
T4 construct: purchased Sigma Chemical Company G5663
Protocol: (§1) The derivative was tested in a two step format. For the first step, the derivative was added to a mixture with one of three GSTs with or without glutathione. At different times after the reaction was initiated, a portion was removed and mixed with a luciferase reaction mixture.
(§2) S. japonica GST: 1 vial with 3 mg GST (Part G5663, Sigma Chemical Company) was dissolved in 500 μl of 10 mM BisTris, pH 6.6.
(§3) The reactions (Table 1) were assembled by first adding the water and 1 M BisTris solutions in individual 0.5 ml microfuge tubes, then adding the other components except for the GST #3 solution. Finally, the GST #3 (FIG. 12) solution was added to the reactions, the resulting solution was mixed, and the time of addition noted.
Buffer stock solutions (1 M) of BisTris at pH 6.5, HEPES, pH 7.0, 7.5 and 8.0 and Tricine pH 8.5 were prepared by dissolving solid reagent obtained from Sigma Chemical Corporation and adjusting the pH to the desired value.
The GST #3 addition was performed last and the solutions were mixed immediately after addition of GST #3. […] After mixing, the light produced by the solution was measured using a Turner TD 20/20 luminometer.
The stock of S. japonica GST used in Example IA was diluted to 1 mg/ml with 10 mM BisTris pH 6.5.
The reactions were initiated by addition of GST #3 and mixing. […]

GST A1-1 = GST A1-1 (Homo sapiens, UniProt P08263); conditions: for Raw Data light reading: GST A1-1, 2 mM glutathione
Protocol: Enzyme and glutathione stock solutions are described in Example IA.
(§4) After assembly, the enzyme stock solutions were diluted 1:10 into 10 mM HEPES, pH 7.5 and the following additions were made to the reactions.
GST A1-1 (Sigma) is an enzyme found in a few body tissues, including kidney, intestine, lung and liver. GST M1-1 (Sigma) is a type b allelic variant, which corresponds to GST psi purified from human liver.
(§5) The reactions were allowed to proceed for 30 minutes at room temperature and then 100 μl of P450 Glo reagent was added to each reaction and the light produced by the subsequent solution was measured on a Veritas luminometer.

equine GST = assay: Two-step luminescent GST assay with equine GST; format: biochemical; conditions: for Raw Data light reading: Equine GST, 2 mM glutathione
Protocol: as §1, §2, §3, §4, §5

[4] = Non-enzymatic conversion of luciferin derivative by glutathione (no GST) and buffer controls; format: biochemical; conditions: for Glutathione Signal: glutathione alone minus buffer; for Light Output: Table 4 reaction 1: BisTris pH 6.5, no glutathione, time post mixing in column head; for Light Reading: no enzyme, 45 min
Protocol: Buffer stock solutions (1 M) of BisTris at pH 6.5, HEPES, pH 7.0, 7.5 and 8.0 and Tricine pH 8.5 were prepared by dissolving solid reagent obtained from Sigma Chemical Corporation and adjusting the pH to the desired value. […]

[5] = Control without MAO: fluorescence of the fluorogenic derivative (MAO substituted with H2O)
Protocol: The fluorescent signal was then measured (excitation/emission=355/460 nm) on a Fluoroskan Ascent plate fluorometer.
This 90 μl contained 35 μl 200 mM Tricine pH 8.3, 35 μl 200 mM Tricine pH 8.7 (or water), 10 μl 200 mM MgSO4, and 10 μl of each substrate dilution.

Sequence of GST A1-1 (P08263 whole entry): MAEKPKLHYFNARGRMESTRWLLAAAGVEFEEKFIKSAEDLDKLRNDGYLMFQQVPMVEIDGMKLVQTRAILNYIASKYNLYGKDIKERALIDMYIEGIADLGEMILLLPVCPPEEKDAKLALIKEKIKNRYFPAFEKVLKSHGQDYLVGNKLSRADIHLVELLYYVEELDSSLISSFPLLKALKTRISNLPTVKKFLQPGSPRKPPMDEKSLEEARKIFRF
T2 sequence (P08659 whole entry): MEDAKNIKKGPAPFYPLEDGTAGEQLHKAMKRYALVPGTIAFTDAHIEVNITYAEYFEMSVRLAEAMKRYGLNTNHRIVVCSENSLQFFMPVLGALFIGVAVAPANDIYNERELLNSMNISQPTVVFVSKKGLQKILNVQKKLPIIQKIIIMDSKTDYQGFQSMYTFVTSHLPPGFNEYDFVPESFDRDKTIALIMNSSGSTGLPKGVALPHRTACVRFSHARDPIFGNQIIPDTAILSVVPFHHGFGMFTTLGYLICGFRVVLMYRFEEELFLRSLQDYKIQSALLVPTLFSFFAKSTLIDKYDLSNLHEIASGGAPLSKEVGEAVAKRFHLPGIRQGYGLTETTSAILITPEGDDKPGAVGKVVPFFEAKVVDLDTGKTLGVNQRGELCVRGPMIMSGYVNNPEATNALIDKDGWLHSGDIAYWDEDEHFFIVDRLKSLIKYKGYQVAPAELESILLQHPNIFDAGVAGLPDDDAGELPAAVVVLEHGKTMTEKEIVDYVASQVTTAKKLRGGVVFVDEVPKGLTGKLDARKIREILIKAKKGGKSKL
T1 sequence (P10635 whole entry): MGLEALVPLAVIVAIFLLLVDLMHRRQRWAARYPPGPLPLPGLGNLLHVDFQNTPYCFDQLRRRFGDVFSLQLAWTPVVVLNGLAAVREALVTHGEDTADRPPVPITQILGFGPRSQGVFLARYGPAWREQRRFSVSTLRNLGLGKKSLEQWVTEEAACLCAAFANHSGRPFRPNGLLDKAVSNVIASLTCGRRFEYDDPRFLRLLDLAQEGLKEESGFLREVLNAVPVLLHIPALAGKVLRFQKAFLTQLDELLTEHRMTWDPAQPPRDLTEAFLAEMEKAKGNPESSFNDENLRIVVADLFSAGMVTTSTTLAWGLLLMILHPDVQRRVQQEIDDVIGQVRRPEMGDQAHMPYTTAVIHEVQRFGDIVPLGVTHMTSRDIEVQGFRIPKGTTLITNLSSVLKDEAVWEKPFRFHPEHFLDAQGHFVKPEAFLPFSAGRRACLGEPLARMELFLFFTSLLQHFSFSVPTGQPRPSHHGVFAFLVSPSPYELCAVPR
T4 sequence (P08515 whole entry): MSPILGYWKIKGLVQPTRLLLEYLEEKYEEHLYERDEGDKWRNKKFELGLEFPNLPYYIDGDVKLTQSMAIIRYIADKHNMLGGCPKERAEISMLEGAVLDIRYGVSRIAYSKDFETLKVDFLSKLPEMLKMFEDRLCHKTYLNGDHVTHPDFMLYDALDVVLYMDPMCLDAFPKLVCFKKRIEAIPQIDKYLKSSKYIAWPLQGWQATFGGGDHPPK

Compound: CCOC(=O)[C@H]1CSC(c2nc3ccc(O)cc3s2)=N1 [D-luciferin ethyl ester]
- carboxylesterase substrate (porcine esterase): effective in this format

Compound: CC(NC(C)(C)C)C(=O)c1cccc(Cl)c1 (stereo not shown) [bupropion]
- IC50 (CYP2D6): 33 µM

Compound: O=C(O)[C@H]1CSC(c2nc3cc(F)c(O)cc3s2)=N1 [5′-fluoroluciferin]
- ATP requirement of luciferase reaction [1]: saturated with ATP at a higher concentration than the reaction using luciferin
- blue shift of luminescence λmax from regular luciferin [2]: approximately 25 nm
- blue shift of luminescence λmax from regular luciferin ([2]; listed as 5′ fluoroluciferin): about 10 nm
- Relative Luminescence (% of 8.3 Luciferin) ([3]; pH 6.900, MOPS): 19%
- Relative Luminescence (% of 8.3 Luciferin) ([3]; pH 7.133, MOPS): 22%
- Relative Luminescence (% of 8.3 Luciferin) ([3]; pH 7.296, MOPS): 23%
- Relative Luminescence (% of 8.3 Luciferin) ([3]; pH 7.303, HEPES): 22%
- Relative Luminescence (% of 8.3 Luciferin) ([3]; pH 7.499, MOPS): 23%
- Relative Luminescence (% of 8.3 Luciferin) ([3]; pH 7.521, HEPES): 25%
- Relative Luminescence (% of 8.3 Luciferin) ([3]; pH 7.673, Tricine): 24%
- Relative Luminescence (% of 8.3 Luciferin) ([3]; pH 7.720, HEPES): 27%
- Relative Luminescence (% of 8.3 Luciferin) ([3]; pH 7.883, Tricine): 24%
- Relative Luminescence (% of 8.3 Luciferin) ([3]; pH 7.892, HEPES): 26%
- Relative Luminescence (% of 8.3 Luciferin) ([3]; pH 8.100, Tricine): 24%
- Relative Luminescence (% of 8.3 Luciferin) ([3]; pH 8.327, Tricine): 22%

Compound: COC(=O)[C@H]1CSC(c2nc3ccc(O)cc3s2)=N1 [D-luciferin methyl ester]
- carboxylesterase substrate (porcine esterase): effective in this format

Compound: Acetyl Luciferin
- Raw Data light reading (GST M1-1; 2 mM AL): 42,867
- Raw Data light reading (GST M1-1; 20 mM AL): 419,400
- Net Enzyme Signal (GST M1-1; Net 2 mM AL): 7,661
- Net Enzyme Signal (GST M1-1; Net 20 mM AL): 88,484
- Net Enzyme Signal (S. japonica GST; Net 2 mM AL): 91,082
- Net Enzyme Signal (S. japonica GST; Net 20 mM AL): 902,203
- Raw Data light reading (S. japonica GST; 2 mM AL): 126,288
- Raw Data light reading (S. japonica GST; 20 mM AL): 1,233,119
- Raw Data light reading (GST A1-1; 2 mM AL): 42,725
- Raw Data light reading (GST A1-1; 20 mM AL): 365,770
- Net Enzyme Signal (GST A1-1; Net 2 mM AL): 7,519
- Net Enzyme Signal (GST A1-1; Net 20 mM AL): 34,854
- Raw Data light reading (equine GST; 2 mM AL): 39,036
- Raw Data light reading (equine GST; 20 mM AL): 361,356
- Net Enzyme Signal (equine GST; Net 2 mM AL): 3,830
- Net Enzyme Signal (equine GST; Net 20 mM AL): 30,440
- Glutathione Signal ([4]; 2 mM AL): 14,557
- Glutathione Signal ([4]; 20 mM AL): 147,064
- Raw Data light reading ([4]; Buffer Alone, 2 mM AL, pH 7.5, 30 min): 20,649
- Raw Data light reading ([4]; Buffer Alone, 20 mM AL, pH 7.5, 30 min): 183,852
- Raw Data light reading ([4]; Glutathione Alone (2 mM), 2 mM AL): 35,206
- Raw Data light reading ([4]; Glutathione Alone (2 mM), 20 mM AL): 330,916

Compound: CC(C)N(CCC(C(N)=O)(c1ccccc1)c1ccccn1)C(C)C (stereo not shown) [disopyramide]
- IC50 (CYP2D6): 220 µM

Compound: Clc1ccccc1C(c1ccccc1)(c1ccccc1)n1ccnc1 [clotrimazole]
- IC50 (CYP2D6): 22.6 µM

Compound: CNCCCOc1ccc2c(C)cc(=O)oc2c1 [MAO-F3, 7-(4-methyl-3-N-methylaminopropoxy)coumarin]
- no MAO fluorescent signal ([5]; [MAO-F3] 0.21 μM): 48
- no MAO fluorescent signal ([5]; [MAO-F3] 863.75 μM): 6461

Compound: O=C(O)[C@H]1CSC(c2ccc3cc(Oc4ccc(C(F)(F)F)cc4[N+](=O)[O-])ccc3n2)=N1 [GST #3, 6-(2-nitro-4-trifluoromethyl-phenoxy)quinolinyl-luciferin]
- Light Reading (S. japonica GST; reaction 2: pH 7.5, 50 μl 10 mM GSH, 10 μl S. japonica GST): 61.58
- Light Reading (S. japonica GST; reaction 4: pH 7.5, 30 μl 10 mM GSH, enzyme): 55.18
- Light Reading (S. japonica GST; reaction 6: pH 7.5, 10 μl 10 mM GSH, enzyme): 52.23
- Light Reading (S. japonica GST; reaction 8: pH 8.0, 50 μl 10 mM GSH, enzyme): 152.3
- Light Reading (S. japonica GST; reaction 10: pH 8.0, 30 μl 10 mM GSH, enzyme): 135.6
- Light Reading (S. japonica GST; reaction 12: pH 8.0, 10 μl 10 mM GSH, enzyme): 97.47
- Light Reading (S. japonica GST; reaction 14: pH 8.5, 50 μl 10 mM GSH, enzyme): 532.4
- Light Reading (S. japonica GST; reaction 16: pH 8.5, 30 μl 10 mM GSH, enzyme): 416.7
- Light Reading (S. japonica GST; reaction 18: pH 8.5, 10 μl 10 mM GSH, enzyme): 267.3
- GST preference (equine GST; light generating reaction): better substrate for equine GST in a light generating reaction than GST M1-1 and GST A1-1
- Light Output ([4]; 20 minutes after mixing): 0.976
- Light Output ([4]; 40 minutes after mixing): 1.099
- Light Output ([4]; at time of mixing): 1.01
- Light Reading ([4]; Table 6 reaction 1: pH 7.5, 50 μl 10 mM GSH): 26.3
- Light Reading ([4]; reaction 3: pH 7.5, 30 μl 10 mM GSH): 19.21
- Light Reading ([4]; reaction 5: pH 7.5, 10 μl 10 mM GSH): 10.73
- Light Reading ([4]; reaction 7: pH 8.0, 50 μl 10 mM GSH): 65.98
- Light Reading ([4]; reaction 9: pH 8.0, 30 μl 10 mM GSH): 48.41
- Light Reading ([4]; reaction 11: pH 8.0, 10 μl 10 mM GSH): 22.52
- Light Reading ([4]; reaction 13: pH 8.5, 50 μl 10 mM GSH): 295.2
- Light Reading ([4]; reaction 15: pH 8.5, 30 μl 10 mM GSH): 199.4
- Light Reading ([4]; reaction 17: pH 8.5, 10 μl 10 mM GSH): 97.89

Compound: O=C(OCc1cccnc1)[C@H]1CSC(c2nc3ccc(O)cc3s2)=N1 [D-luciferin picolinyl ester]
- carboxylesterase substrate (porcine esterase): effective in this format
